Key:
[1] = target: Serine/threonine-protein kinase 33 (Homo sapiens, UniProt Q9BYT3); experiment: Selectivity interaction (Enzymatic assay) EUB0000608a STK33
[2] = target: Cyclin-G-associated kinase (Homo sapiens, UniProt O14976); experiment: Selectivity interaction (Enzymatic assay) EUB0000608a GAK
[3] = target: Serine/threonine-protein kinase PLK1 (Homo sapiens, UniProt P53350); experiment: Selectivity interaction (Enzymatic assay) EUB0000608a PLK1
[4] = target: Serine/threonine-protein kinase PLK3 (Homo sapiens, UniProt Q9H4B4); experiment: Selectivity interaction (Enzymatic assay) EUB0000608a PLK3
[5] = target: Serine/threonine-protein kinase PLK4 (Homo sapiens, UniProt O00444); experiment: Selectivity interaction (Enzymatic assay) EUB0000608a PLK4
Serine/threonine-protein kinase PLK4, sequence (O00444 whole entry): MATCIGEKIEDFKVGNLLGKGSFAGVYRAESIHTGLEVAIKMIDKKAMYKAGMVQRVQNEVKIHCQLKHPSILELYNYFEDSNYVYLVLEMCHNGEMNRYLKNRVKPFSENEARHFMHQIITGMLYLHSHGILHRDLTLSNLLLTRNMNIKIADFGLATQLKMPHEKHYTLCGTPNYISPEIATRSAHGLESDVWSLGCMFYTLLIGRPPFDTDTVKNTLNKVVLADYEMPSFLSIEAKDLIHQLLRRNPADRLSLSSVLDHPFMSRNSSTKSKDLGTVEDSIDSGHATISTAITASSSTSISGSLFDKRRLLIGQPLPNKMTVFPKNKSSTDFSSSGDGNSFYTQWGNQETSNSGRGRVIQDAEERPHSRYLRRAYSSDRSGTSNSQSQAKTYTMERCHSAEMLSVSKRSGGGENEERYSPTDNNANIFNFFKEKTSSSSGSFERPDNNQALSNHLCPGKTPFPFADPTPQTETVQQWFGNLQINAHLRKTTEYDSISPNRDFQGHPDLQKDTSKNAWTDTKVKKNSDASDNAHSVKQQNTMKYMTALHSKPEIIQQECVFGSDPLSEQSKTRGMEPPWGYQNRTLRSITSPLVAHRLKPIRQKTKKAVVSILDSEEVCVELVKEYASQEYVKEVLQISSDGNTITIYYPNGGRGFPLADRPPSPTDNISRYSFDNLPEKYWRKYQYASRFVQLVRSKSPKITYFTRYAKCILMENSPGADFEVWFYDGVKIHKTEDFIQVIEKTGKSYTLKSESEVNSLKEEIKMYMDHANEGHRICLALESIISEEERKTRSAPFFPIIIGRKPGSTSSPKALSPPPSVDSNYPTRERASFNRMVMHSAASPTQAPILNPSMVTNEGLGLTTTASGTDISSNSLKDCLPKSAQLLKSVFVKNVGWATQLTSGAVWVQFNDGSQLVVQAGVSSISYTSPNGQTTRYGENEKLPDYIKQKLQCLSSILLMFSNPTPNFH

Serine/threonine-protein kinase 33, sequence (Q9BYT3 whole entry): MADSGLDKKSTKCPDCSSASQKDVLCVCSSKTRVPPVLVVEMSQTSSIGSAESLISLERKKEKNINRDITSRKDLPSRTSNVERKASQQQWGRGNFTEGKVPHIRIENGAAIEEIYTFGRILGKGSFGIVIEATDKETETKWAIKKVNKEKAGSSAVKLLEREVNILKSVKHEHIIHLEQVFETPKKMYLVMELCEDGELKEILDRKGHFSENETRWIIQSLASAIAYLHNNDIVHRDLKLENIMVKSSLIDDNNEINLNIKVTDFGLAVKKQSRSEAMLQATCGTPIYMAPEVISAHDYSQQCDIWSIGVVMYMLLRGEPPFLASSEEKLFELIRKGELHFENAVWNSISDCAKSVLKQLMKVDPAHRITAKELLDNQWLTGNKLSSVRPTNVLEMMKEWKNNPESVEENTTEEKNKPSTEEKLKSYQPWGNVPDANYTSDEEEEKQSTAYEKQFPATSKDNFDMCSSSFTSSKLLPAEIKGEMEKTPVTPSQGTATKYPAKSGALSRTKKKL
Serine/threonine-protein kinase PLK1, sequence (P53350 whole entry): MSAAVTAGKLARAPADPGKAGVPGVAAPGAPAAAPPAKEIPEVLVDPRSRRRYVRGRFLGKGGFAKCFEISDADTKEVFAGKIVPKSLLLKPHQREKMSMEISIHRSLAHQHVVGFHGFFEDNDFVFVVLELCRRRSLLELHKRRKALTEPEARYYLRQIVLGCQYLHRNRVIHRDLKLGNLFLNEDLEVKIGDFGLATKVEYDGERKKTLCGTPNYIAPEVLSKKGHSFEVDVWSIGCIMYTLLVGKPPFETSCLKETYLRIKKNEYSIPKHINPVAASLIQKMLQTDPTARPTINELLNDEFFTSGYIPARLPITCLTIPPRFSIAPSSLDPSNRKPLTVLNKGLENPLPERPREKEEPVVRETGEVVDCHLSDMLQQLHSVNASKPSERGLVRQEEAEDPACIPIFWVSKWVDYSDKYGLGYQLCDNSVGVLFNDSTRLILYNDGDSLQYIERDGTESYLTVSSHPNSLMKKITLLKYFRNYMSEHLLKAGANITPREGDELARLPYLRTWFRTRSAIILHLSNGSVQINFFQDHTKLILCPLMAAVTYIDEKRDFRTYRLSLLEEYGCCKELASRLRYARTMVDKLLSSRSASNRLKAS
Serine/threonine-protein kinase PLK3, sequence (Q9H4B4 whole entry): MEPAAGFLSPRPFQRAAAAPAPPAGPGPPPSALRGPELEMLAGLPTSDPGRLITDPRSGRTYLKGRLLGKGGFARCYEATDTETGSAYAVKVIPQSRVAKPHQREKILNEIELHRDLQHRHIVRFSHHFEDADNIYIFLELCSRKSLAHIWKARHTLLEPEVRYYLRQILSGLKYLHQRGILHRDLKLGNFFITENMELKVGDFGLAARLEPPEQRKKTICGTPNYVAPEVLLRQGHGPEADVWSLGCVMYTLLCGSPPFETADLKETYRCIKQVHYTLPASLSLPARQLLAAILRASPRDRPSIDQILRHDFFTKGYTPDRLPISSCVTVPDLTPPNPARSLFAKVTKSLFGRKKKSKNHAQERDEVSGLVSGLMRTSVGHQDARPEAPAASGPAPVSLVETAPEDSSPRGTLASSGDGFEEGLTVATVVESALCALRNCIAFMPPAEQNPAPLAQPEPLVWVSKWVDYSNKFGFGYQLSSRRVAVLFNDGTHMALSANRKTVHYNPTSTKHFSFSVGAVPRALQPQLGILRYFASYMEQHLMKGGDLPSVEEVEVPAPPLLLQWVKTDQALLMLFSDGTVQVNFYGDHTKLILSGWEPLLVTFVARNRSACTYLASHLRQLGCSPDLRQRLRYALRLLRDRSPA
Cyclin-G-associated kinase, sequence (O14976 whole entry): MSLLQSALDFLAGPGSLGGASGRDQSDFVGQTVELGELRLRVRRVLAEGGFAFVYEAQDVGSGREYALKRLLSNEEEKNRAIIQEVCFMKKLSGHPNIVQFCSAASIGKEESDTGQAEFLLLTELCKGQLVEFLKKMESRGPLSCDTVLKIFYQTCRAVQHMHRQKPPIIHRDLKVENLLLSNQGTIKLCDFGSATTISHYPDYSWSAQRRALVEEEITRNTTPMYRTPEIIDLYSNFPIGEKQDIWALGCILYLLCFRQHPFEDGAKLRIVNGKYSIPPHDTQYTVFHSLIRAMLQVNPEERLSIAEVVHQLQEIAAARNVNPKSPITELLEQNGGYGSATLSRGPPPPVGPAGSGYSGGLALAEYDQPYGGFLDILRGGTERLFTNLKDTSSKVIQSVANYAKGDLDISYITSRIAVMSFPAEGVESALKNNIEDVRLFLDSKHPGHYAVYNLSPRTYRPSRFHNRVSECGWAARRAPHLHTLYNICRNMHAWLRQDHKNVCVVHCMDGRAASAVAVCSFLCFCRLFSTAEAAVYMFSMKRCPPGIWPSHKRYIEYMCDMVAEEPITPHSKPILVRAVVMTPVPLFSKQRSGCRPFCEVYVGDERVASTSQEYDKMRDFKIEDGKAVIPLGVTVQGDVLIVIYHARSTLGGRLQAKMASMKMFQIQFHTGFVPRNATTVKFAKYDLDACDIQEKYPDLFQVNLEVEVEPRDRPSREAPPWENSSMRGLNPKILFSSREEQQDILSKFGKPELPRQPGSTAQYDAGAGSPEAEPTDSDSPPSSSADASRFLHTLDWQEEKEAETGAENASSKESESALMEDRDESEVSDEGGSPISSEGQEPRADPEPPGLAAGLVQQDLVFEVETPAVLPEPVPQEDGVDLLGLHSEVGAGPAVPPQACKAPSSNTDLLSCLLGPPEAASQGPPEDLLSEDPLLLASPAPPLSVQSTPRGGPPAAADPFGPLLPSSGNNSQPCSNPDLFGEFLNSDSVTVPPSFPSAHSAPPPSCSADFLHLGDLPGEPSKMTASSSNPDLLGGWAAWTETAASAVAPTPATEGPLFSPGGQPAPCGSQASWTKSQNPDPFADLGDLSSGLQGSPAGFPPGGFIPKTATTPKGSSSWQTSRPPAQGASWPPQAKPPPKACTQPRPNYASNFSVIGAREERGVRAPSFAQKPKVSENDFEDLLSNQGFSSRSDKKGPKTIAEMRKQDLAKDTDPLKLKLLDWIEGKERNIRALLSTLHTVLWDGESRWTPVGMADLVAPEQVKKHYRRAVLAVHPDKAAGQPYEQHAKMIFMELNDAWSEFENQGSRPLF

IC50 [1]: 5000 nM | IC50 [2]: 140 nM | IC50 [3]: 61 nM | IC50 [4]: 1600 nM | IC50 [5]: 3100 nM
SMILES: CCOc1cc(N2CCC(O)CC2)ccc1Nc1ncc2c(n1)N(C1CCCC1)CCC(=O)N2C

Reference: ChEMBL document CHEMBL5212743, “Selectivity Literature for EUbOPEN Chemogenomics Library wave 3” (2023)
